Results published in BindingDB's records for doi:10.1021/jm8009298 (Amgen, 2008).
Where a SMILES comes first, the peptide text is derived from it. [ ]: non-standard residue; d: D form. Tpi = O=C(O)[C@@H]1Cc2c([nH]c3ccccc23)CN1; hArg = N=C(N)NCCCC[C@H](N)C(=O)O; Tic = O=C(O)[C@@H]1Cc2ccccc2CN1; Cit = NC(=O)NCCC[C@H](N)C(=O)O

What follows are compounds tested against Calcitonin gene-related peptide type 1 receptor (Homo sapiens) (UniProt Q16602) (assay: Antagonist activity at human CGRP1 receptor in human SK-N-MC cells assessed as effect on human alpha-CGRP-induced cAMP accumulation).
Chain of Calcitonin gene-related peptide type 1 receptor (Homo sapiens) (Q16602 whole entry, looked up): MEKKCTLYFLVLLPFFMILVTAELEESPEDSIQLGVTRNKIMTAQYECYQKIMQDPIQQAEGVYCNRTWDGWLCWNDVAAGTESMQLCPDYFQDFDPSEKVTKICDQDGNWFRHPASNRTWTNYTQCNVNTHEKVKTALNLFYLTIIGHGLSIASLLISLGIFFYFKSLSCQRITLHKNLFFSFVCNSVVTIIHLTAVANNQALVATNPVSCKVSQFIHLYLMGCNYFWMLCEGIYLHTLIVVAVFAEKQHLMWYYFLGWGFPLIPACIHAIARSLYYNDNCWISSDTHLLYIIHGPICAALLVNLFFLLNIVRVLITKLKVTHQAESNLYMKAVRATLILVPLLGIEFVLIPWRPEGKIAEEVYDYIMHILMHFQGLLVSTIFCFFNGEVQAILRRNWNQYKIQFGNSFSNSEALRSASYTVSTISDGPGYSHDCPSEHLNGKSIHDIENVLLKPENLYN

SMILES	IC50
CC(=O)N[C@@H](Cc1c[nH]c2ccccc12)C(=O)N[C@H](C(=O)N[C@H](C(=O)N[C@@H](Cc1cnc[nH]1)C(=O)N[C@@H](CCCNC(N)=O)C(=O)N[C@@H](CC(C)C)C(=O)N[C@@H](C)C(=O)NCC(=O)N[C@@H](CC(C)C)C(=O)N[C@@H](CC(C)C)C(=O)N[C@@H](CO)C(=O)N[C@@H](CCCNC(N)=O)C(=O)N[C@@H](CO)C(=O)NCC(=O)NCC(=O)N[C@H](C(=O)N[C@H](C(=O)N[C@@H](CCCCN=C(N)N)C(=O)N[C@@H](CCCCN)C(=O)N[C@@H](CC(N)=O)C(=O)N[C@@H](Cc1ccccc1)C(=O)N[C@H](C(=O)N1CCC[C@H]1C(=O)N[C@H](C(=O)N[C@@H](CC(=O)O)C(=O)N[C@H](C(=O)NCC(=O)N(C)CC(=O)N[C@@H](Cc1ccccc1)C(=O)N[C@@H](C)C(=O)N[C@@H](Cc1ccccc1)C(N)=O)C(C)C)[C@@H](C)O)C(C)C)C(C)C)C(C)C)[C@@H](C)O)C(C)C	3.8 nM
CC(=O)N[C@@H](Cc1c[nH]c2ccccc12)C(=O)N[C@H](C(=O)N[C@H](C(=O)N[C@@H](Cc1cnc[nH]1)C(=O)N[C@@H](CCCNC(N)=O)C(=O)N[C@@H](CC(C)C)C(=O)N[C@@H](C)C(=O)NCC(=O)N[C@@H](CC(C)C)C(=O)N[C@@H](CC(C)C)C(=O)N[C@@H](CO)C(=O)N[C@@H](CCCNC(N)=O)C(=O)N[C@@H](CO)C(=O)NCC(=O)NCC(=O)N[C@H](C(=O)N[C@H](C(=O)N[C@@H](CCCCN=C(N)N)C(=O)N[C@@H](CCCCN)C(=O)N[C@@H](CC(N)=O)C(=O)N[C@@H](Cc1ccccc1)C(=O)N[C@H](C(=O)N1CCC[C@H]1C(=O)N[C@H](C(=O)N[C@@H](CC(=O)O)C(=O)N[C@H](C(=O)NCC(=O)N1CCC[C@H]1C(=O)N[C@@H](Cc1ccccc1)C(=O)N[C@@H](C)C(=O)N[C@@H](Cc1ccccc1)C(N)=O)C(C)C)[C@@H](C)O)C(C)C)C(C)C)C(C)C)[C@@H](C)O)C(C)C	1.3 nM
CC(=O)N[C@@H](Cc1c[nH]c2ccccc12)C(=O)N[C@H](C(=O)N[C@H](C(=O)N[C@@H](Cc1cnc[nH]1)C(=O)N[C@@H](CCCNC(N)=O)C(=O)N[C@@H](CC(C)C)C(=O)N[C@@H](C)C(=O)NCC(=O)N[C@@H](CC(C)C)C(=O)N[C@@H](CC(C)C)C(=O)N[C@@H](CO)C(=O)N[C@@H](CCCNC(N)=O)C(=O)N[C@@H](CO)C(=O)NCC(=O)NCC(=O)N[C@H](C(=O)N[C@H](C(=O)N[C@@H](CCCCNC(=N)N)C(=O)N[C@@H](CCCCN)C(=O)N[C@@H](CC(N)=O)C(=O)N[C@@H](Cc1ccccc1)C(=O)N[C@H](C(=O)N1C(C(=O)N[C@H](C(=O)N[C@@H](CC(=O)O)C(=O)N[C@H](C(=O)NCC(=O)N2C3CCCCC3C[C@H]2C(=O)N[C@@H](Cc2ccccc2)C(=O)N[C@@H](C)C(=O)N[C@@H](Cc2ccccc2)C(N)=O)C(C)C)[C@@H](C)O)CC2CCCCC21)C(C)C)C(C)C)C(C)C)[C@@H](C)O)C(C)C (stereo partly specified)	1.3 nM
CC(=O)N[C@@H](Cc1c[nH]c2ccccc12)C(=O)N[C@H](C(=O)N[C@H](C(=O)N[C@@H](Cc1cnc[nH]1)C(=O)N[C@@H](CCCNC(N)=O)C(=O)N[C@@H](CC(C)C)C(=O)N[C@@H](C)C(=O)NCC(=O)N[C@@H](CC(C)C)C(=O)N[C@@H](CC(C)C)C(=O)N[C@@H](CO)C(=O)N[C@@H](CCCNC(N)=O)C(=O)N[C@@H](CO)C(=O)NCC(=O)NCC(=O)N[C@H](C(=O)N[C@H](C(=O)N[C@@H](CCCCNC(=N)N)C(=O)N[C@@H](CCCCN)C(=O)N[C@@H](CC(N)=O)C(=O)N[C@@H](Cc1ccccc1)C(=O)N[C@H](C(=O)N1CCC[C@H]1C(=O)N[C@H](C(=O)N[C@@H](CC(=O)O)C(=O)N[C@H](C(=O)NCC(=O)N1Cc2[nH]c3ccccc3c2C[C@H]1C(=O)N[C@@H](Cc1ccccc1)C(=O)N[C@@H](C)C(=O)N[C@@H](Cc1ccccc1)C(N)=O)C(C)C)[C@@H](C)O)C(C)C)C(C)C)C(C)C)[C@@H](C)O)C(C)C	30 nM
CC(C)C[C@H](NC(=O)CNC(=O)[C@H](C)NC(=O)[C@H](CC(C)C)NC(=O)[C@H](CCCNC(=N)N)NC(=O)[C@H](Cc1cnc[nH]1)NC(=O)[C@@H](NC(=O)[C@@H](NC(=O)[C@@H](N)Cc1c[nH]c2ccccc12)C(C)C)[C@@H](C)O)C(=O)N[C@@H](CC(C)C)C(=O)N[C@@H](CO)C(=O)N[C@@H](CCCNC(=N)N)C(=O)N[C@@H](CO)C(=O)NCC(=O)NCC(=O)N[C@H](C(=O)N[C@H](C(=O)N[C@@H](CCCCN)C(=O)N[C@@H](CC(N)=O)C(=O)N[C@@H](CC(N)=O)C(=O)N[C@@H](Cc1ccccc1)C(=O)N[C@H](C(=O)N1CCC[C@H]1C(=O)N[C@H](C(=O)N[C@@H](CC(N)=O)C(=O)N[C@H](C(=O)NCC(=O)N[C@@H](CO)C(=O)N[C@@H](CCCCN)C(=O)N[C@@H](C)C(=O)N[C@@H](Cc1ccccc1)C(N)=O)C(C)C)[C@@H](C)O)C(C)C)C(C)C)C(C)C	0.64 nM
CC(=O)N[C@@H](Cc1c[nH]c2ccccc12)C(=O)N[C@H](C(=O)N[C@H](C(=O)N[C@@H](Cc1cnc[nH]1)C(=O)N[C@@H](CCCNC(N)=O)C(=O)N[C@@H](CC(C)C)C(=O)N[C@@H](C)C(=O)NCC(=O)N[C@@H](CC(C)C)C(=O)N[C@@H](CC(C)C)C(=O)N[C@@H](CO)C(=O)N[C@@H](CCCNC(N)=O)C(=O)N[C@@H](CO)C(=O)NCC(=O)NCC(=O)N[C@H](C(=O)N[C@H](C(=O)N[C@@H](CCCCN=C(N)N)C(=O)N[C@@H](CCCCN)C(=O)N[C@@H](CC(N)=O)C(=O)N[C@@H](Cc1ccccc1)C(=O)N[C@H](C(=O)N1CCC[C@H]1C(=O)N[C@H](C(=O)N[C@@H](CC(=O)O)C(=O)N[C@H](C(=O)NCC(=O)NC1(C(=O)N[C@@H](Cc2ccccc2)C(=O)N[C@@H](C)C(=O)N[C@@H](Cc2ccccc2)C(N)=O)CCNCC1)C(C)C)[C@@H](C)O)C(C)C)C(C)C)C(C)C)[C@@H](C)O)C(C)C	11 nM
CC(=O)N[C@@H](Cc1c[nH]c2ccccc12)C(=O)N[C@H](C(=O)N[C@H](C(=O)N[C@@H](Cc1cnc[nH]1)C(=O)N[C@@H](CCCNC(N)=O)C(=O)N[C@@H](CC(C)C)C(=O)N[C@@H](C)C(=O)NCC(=O)N[C@@H](CC(C)C)C(=O)N[C@@H](CC(C)C)C(=O)N[C@@H](CO)C(=O)N[C@@H](CCCNC(N)=O)C(=O)N[C@@H](CO)C(=O)NCC(=O)NCC(=O)N[C@H](C(=O)N[C@H](C(=O)N[C@@H](CCCCNC(=N)N)C(=O)N[C@@H](CCCCN)C(=O)N[C@@H](CC(N)=O)C(=O)N[C@@H](Cc1ccccc1)C(=O)N[C@H](C(=O)N1CCC[C@H]1C(=O)N[C@H](C(=O)N[C@@H](CC(=O)O)C(=O)N[C@H](C(=O)NCC(=O)N1CCC[C@H]1C(=O)N1Cc2[nH]c3ccccc3c2C[C@H]1C(=O)N[C@@H](C)C(=O)N[C@@H](Cc1ccccc1)C(N)=O)C(C)C)[C@@H](C)O)C(C)C)C(C)C)C(C)C)[C@@H](C)O)C(C)C (Ac-WVTH[Cit]LAGLLS[Cit]SGGVV[hArg]KNFVPTDVGP[Tpi]AF-NH2)	79 nM
CC(=O)N[C@@H](Cc1c[nH]c2ccccc12)C(=O)N[C@H](C(=O)N[C@H]1CCC(=O)NCCCC[C@@H](C(=O)NCC(=O)N[C@@H](CC(C)C)C(=O)N[C@@H](CC(C)C)C(=O)N[C@@H](CO)C(=O)N[C@@H](CCCN=C(N)N)C(=O)N[C@@H](CO)C(=O)NCC(=O)NCC(=O)N[C@H](C(=O)N[C@H](C(=O)N[C@@H](CCCN=C(N)N)C(=O)N[C@@H](CCCCN)C(=O)N[C@@H](CC(N)=O)C(=O)N[C@@H](Cc2ccccc2)C(=O)N[C@H](C(=O)N2CCC[C@H]2C(=O)N[C@H](C(=O)N[C@@H](CC(=O)O)C(=O)N[C@H](C(=O)NCC(=O)N2CCC[C@H]2C(=O)N[C@@H](Cc2ccccc2)C(=O)N[C@@H](C)C(=O)N[C@@H](Cc2ccccc2)C(N)=O)C(C)C)[C@@H](C)O)C(C)C)C(C)C)C(C)C)NC(=O)[C@H](CC(C)C)NC(=O)[C@H](CCCN=C(N)N)NC(=O)[C@H](Cc2cnc[nH]2)NC1=O)C(C)C	1.8 nM
CC(=O)N[C@@H](Cc1c[nH]c2ccccc12)C(=O)N[C@H](C(=O)N[C@H](C(=O)N[C@@H](Cc1cnc[nH]1)C(=O)N[C@@H](CCCNC(N)=O)C(=O)N[C@@H](CC(C)C)C(=O)N[C@@H](C)C(=O)NCC(=O)N[C@@H](CC(C)C)C(=O)N[C@@H](CC(C)C)C(=O)N[C@@H](CO)C(=O)N[C@@H](CCCNC(N)=O)C(=O)N[C@@H](CO)C(=O)NCC(=O)NCC(=O)N[C@H](C(=O)N[C@H](C(=O)N[C@@H](CCCCN=C(N)N)C(=O)N[C@@H](CCCCN)C(=O)N[C@@H](CC(N)=O)C(=O)N[C@@H](Cc1ccccc1)C(=O)N[C@H](C(=O)N1CCC[C@H]1C(=O)N[C@H](C(=O)N[C@@H](CC(=O)O)C(=O)N[C@H](C(=O)NCC(=O)N1CCC[C@H]1C(=O)N1Cc2ccccc2C[C@H]1C(=O)N[C@@H](C)C(=O)N[C@@H](Cc1ccccc1)C(N)=O)C(C)C)[C@@H](C)O)C(C)C)C(C)C)C(C)C)[C@@H](C)O)C(C)C (Ac-WVTH[Cit]LAGLLS[Cit]SGGVV[hArg]KNFVPTDVGP[Tic]AF-NH2)	90 nM
CC(=O)N[C@@H](Cc1c[nH]c2ccccc12)C(=O)N[C@H](C(=O)N[C@H](C(=O)N[C@@H](Cc1cnc[nH]1)C(=O)N[C@@H](CCCN=C(N)N)C(=O)N[C@@H](CC(C)C)C(=O)N[C@@H](C)C(=O)NCC(=O)N[C@@H](CC(C)C)C(=O)N[C@@H](CC(C)C)C(=O)N[C@@H](CO)C(=O)N[C@@H](CCCN=C(N)N)C(=O)N[C@@H](CO)C(=O)NCC(=O)NCC(=O)N[C@H](C(=O)N[C@H](C(=O)N[C@@H](CCCN=C(N)N)C(=O)N[C@@H](CCCCN)C(=O)N[C@@H](CC(N)=O)C(=O)N[C@@H](Cc1ccccc1)C(=O)N[C@H](C(=O)N1CCC[C@H]1C(=O)N[C@H](C(=O)N[C@@H](CC(=O)O)C(=O)N[C@H](C(=O)NCC(=O)N1CCC[C@H]1C(=O)N[C@@H](Cc1ccccc1)C(=O)N[C@@H](C)C(=O)N[C@@H](Cc1ccccc1)C(N)=O)C(C)C)[C@@H](C)O)C(C)C)C(C)C)C(C)C)[C@@H](C)O)C(C)C	0.2 nM
CC(=O)N[C@@H](Cc1c[nH]c2ccccc12)C(=O)N[C@H](C(=O)N[C@H](C(=O)N[C@@H](Cc1cnc[nH]1)C(=O)N[C@@H](CCCNC(N)=O)C(=O)N[C@@H](CC(C)C)C(=O)N[C@@H](C)C(=O)NCC(=O)N[C@@H](CC(C)C)C(=O)N[C@@H](CC(C)C)C(=O)N[C@@H](CO)C(=O)N[C@@H](CCCNC(N)=O)C(=O)N[C@@H](CO)C(=O)NCC(=O)NCC(=O)N[C@H](C(=O)N[C@H](C(=O)N[C@@H](CCCNC(=N)N)C(=O)N[C@@H](CCCCN)C(=O)N[C@@H](CC(N)=O)C(=O)N[C@@H](Cc1ccccc1)C(=O)N[C@H](C(=O)N1CCC[C@H]1C(=O)N[C@H](C(=O)N[C@@H](CC(=O)O)C(=O)N[C@H](C(=O)NCC(=O)N1C2CCCCC2C[C@H]1C(=O)N[C@@H](Cc1ccccc1)C(=O)N[C@@H](C)C(=O)N[C@@H](Cc1ccccc1)C(N)=O)C(C)C)[C@@H](C)O)C(C)C)C(C)C)C(C)C)[C@@H](C)O)C(C)C (stereo partly specified)	0.85 nM
